From US20130230459A1, “RADIOLABELLED mGluR2 PET LIGANDS” (Janssen Pharmaceuticals, Inc., priority 2010, published 2013)
Where “and” joins values, the source holds several entries; their conditions need not be identical. Identical values can stand only once.

Key:
mGluR2 = target: T1, mGluR2 (Rattus norvegicus, UniProt P31421); experiment: MicroPET imaging: baseline, blocking and chase experiments; type: in vivo, Wistar rats
T1 construct: from tissue; host or cells: brain of living male Wistar rats (in vivo microPET)
Protocol: Imaging experiments were performed on a Focus™ 220 microPET scanner (Concorde Microsystems, Knoxyille, Tenn., USA) using healthy male Wistar rats. During all scan sessions, animals were kept under gas anesthesia (2.5% isoflurane in O2 at 1 L/min flow rate).
Dynamic scans of 90 min were acquired. After reconstruction of the images (filtered back projection), they were spatially normalized to an in-house created [^11C]raclopride template of the rat brain in Paxinos coordinates. Automated and symmetric volumes of interest (VOIs) were generated for different brain regions (striatum, cortex, cerebellum, hippocampus, hypothalamus, thalamus, substantia nigra, nucleus accumbens and lateral globus pallidus) from which time-activity curves (TAC) were constructed for each individual scan, using PMOD software (v 3.1, PMOD Technologies Ltd.). The radioactivity concentration in the different brain regions was expressed as SUV as a function of time p.i. of the radiotracer by normalization for body weight of the animal and injected dose.
Rats were injected with 30-60 MBq of high specific activity formulation of [^11C]B-4, [^11C]B-2, [^11C]B-7, or [^11C]B-10 via the tail vein under isoflurane anesthesia (2.5% in O2 at 1 L/min flow rate).
For pretreatment and displacement experiments, compound A, compound B or ritanserin were dissolved and administered in a vehicle containing 20% (2-hydroxypropyl)-β-cyclodextrine and two equivalents hydrochloric acid. The ritanserin solution was protected from light.
A self-blocking study was done by subcutaneous (s.c.) administration of the authentic reference material (for [^11C]B-4) at ˜30 min prior to the radiotracer injection. Displacement studies were performed by i.v. injection of compound B at dose 4, 1, 0.3 and 0.1 mg/kg, compound A at dose 1 mg/kg or ritanserin at dose 0.3 mg/kg. All chase compounds were injected ˜30 min after radiotracer injection. A wash-out period of at least four days was maintained between the different pretreatment and displacement studies.
[^11C]B-4 was evaluated in vivo in three rats which were scanned dynamically for 90 min using μPET. The first rat was used for a baseline scan. The second rat was pretreated with authentic reference material B-4 via s.c. administration (dose 10 mg/kg) at 30 min prior to tracer injection. The third rat was used in a chase experiment and was injected i.v. with authentic reference material B-4 (dose 3 mg/kg) 30 min after tracer injection.
Two rats were injected with high specific activity tracer ([^11C]B-4, [^11C]B-2, [^11C]B-7, or [^11C]B-10) and scanned dynamically for 90 min. The first rat was scanned baseline, the second rat was injected i.v. with compound B (dose 4 mg/kg) 30 min after tracer injection. Table 16 gives an overview of the maximum and minimum SUV values in the chase experiment for the four studied tracers.
A chase experiment was performed for [^11C]B-2 with different doses of compound B (4, 1, 0.3, 0.1 mg/kg). The chase compound was injected i.v. 30 min after tracer injection. Table 17 gives an overview of the average SUV values before and after injection of the chase for the total brain.

[1] = Biodistribution studies of 11C tracers; type: in vivo, Wistar rats; details: for SUV Blood / SUV Cerebellum / SUV Cerebrum total / SUV Cortex / SUV Hippocampus / SUV Striatum: normalized for body weight
Protocol: Biodistribution studies were carried out in healthy male Wistar rats (body weight 200-450 g) at 2 min, 30 min and 60 min post injection (p.i.) (n=3/time point). Rats were injected with about 11 MBq (2 min, 30 min analysis) or 22 MBq (60 min analysis) of the tracer via tail vein under anesthesia (2.5% isoflurane in O2 at 1 L/min flow rate) and sacrificed by decapitation at above specified time points. Blood and major organs were collected in tared tubes and weighed. The radioactivity in blood, organs and other body parts was measured using an automated gamma counter. The distribution of radioactivity in different parts of the body at different time points p.i. of the tracer was calculated and expressed as percentage of injected dose (% ID), and as percentage of injected dose per gram tissue (% ID/g) for the selected organs. % ID is calculated as cpm in organ/total cpm recovered. For calculation of total radioactivity in blood, blood mass was assumed to be 7% of the body mass.

T1 sequence (P31421 19-872): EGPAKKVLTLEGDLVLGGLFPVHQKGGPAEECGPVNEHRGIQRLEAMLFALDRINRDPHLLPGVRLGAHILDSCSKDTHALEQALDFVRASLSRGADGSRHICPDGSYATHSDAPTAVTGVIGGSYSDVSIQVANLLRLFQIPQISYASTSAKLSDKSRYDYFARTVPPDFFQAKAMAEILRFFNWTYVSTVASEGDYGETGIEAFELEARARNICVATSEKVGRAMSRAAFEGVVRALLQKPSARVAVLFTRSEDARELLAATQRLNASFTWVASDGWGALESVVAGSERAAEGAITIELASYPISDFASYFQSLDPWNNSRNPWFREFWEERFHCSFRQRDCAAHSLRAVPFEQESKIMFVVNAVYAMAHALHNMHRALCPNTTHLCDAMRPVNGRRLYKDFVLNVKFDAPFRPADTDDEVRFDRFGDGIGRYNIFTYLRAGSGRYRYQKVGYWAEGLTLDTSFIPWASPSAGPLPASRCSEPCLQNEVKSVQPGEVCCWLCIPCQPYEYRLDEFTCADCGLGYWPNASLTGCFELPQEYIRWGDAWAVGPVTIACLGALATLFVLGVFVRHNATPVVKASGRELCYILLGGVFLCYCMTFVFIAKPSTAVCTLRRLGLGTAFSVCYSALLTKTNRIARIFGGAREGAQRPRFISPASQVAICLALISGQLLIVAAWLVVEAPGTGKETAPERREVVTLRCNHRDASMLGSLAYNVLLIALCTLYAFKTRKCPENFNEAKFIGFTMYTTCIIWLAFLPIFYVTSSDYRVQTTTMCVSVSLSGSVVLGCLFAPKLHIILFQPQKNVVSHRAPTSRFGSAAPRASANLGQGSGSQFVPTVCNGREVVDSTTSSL

[11CH3]Oc1ccc(F)cc1C1CCN(c2ccn3c(CC4CC4)nnc3c2Cl)CC1 [[^11C]B-4, 8-chloro-3-(cyclopropylmethyl)-7-[4-[5-fluoro-2-[^11C]methoxyphenyl]-1-piperidinyl]-1,2,4-triazolo[4,3-a]pyridine]
effect of self-chase on brain radioactivity (mGluR2; B-4 3 mg/kg i.v. 30 min after tracer): significant displacement | effect of self-blocking on brain uptake (mGluR2; B-4 10 mg/kg s.c. 30 min prior to tracer): lower brain uptake and faster wash-out | time at which maximum radioactivity concentration in brain is reached (mGluR2; baseline scan): about 9 min p.i. | time until which maximum radioactivity concentration stays constant (mGluR2; baseline scan, followed by wash-out): about 27 min p.i. | % reduction of SUV (total brain) due to chase (mGluR2; chase compound B 4 mg/kg i.v.): 70% | character of tracer binding to mGluR2 in vivo (mGluR2; concluded from blocking/chase microPET experiments): binds reversible and specific to mGluR2 | SUV (total brain) before chase (mGluR2; maximum SUV, chase compound B 4 mg/kg i.v. 30 min after tracer): 1.05 | SUV (total brain) after chase (mGluR2; minimum SUV, chase compound B 4 mg/kg i.v. 30 min after tracer): 0.32 | % ID Blood ([1]; 2 min p.i.): 5.6 % ID and 5.6 ± 0.4 % ID | % ID Carcass ([1]; 2 min p.i.): 42.0 ± 2.0 % ID | % ID Cerebellum ([1]; 2 min p.i.): 0.10 % ID and 0.100 ± 0.000 % ID | % ID Cerebrum total ([1]; 2 min p.i.): 0.45 % ID and 0.450 ± 0.029 % ID | % ID Cortex ([1]; 2 min p.i.): 0.092 ± 0.019 % ID | % ID Heart ([1]; 2 min p.i.): 4.1 ± 0.3 % ID | % ID Hippocampus ([1]; 2 min p.i.): 0.010 ± 0.001 % ID | % ID Intestines ([1]; 2 min p.i.): 7.3 ± 0.6 % ID | % ID Kidneys ([1]; 2 min p.i.): 6.4 ± 0.6 % ID | % ID Liver ([1]; 2 min p.i.): 29.9 ± 2.0 % ID | % ID Lungs ([1]; 2 min p.i.): 2.9 ± 0.4 % ID | % ID Rest of cerebrum ([1]; 2 min p.i.): 0.344 ± 0.047 % ID | % ID Spleen + Pancreas ([1]; 2 min p.i.): 1.9 ± 0.2 % ID | % ID Stomach ([1]; 2 min p.i.): 1.5 ± 0.3 % ID | % ID Striatum ([1]; 2 min p.i.): 0.014 ± 0.001 % ID | % ID Urine ([1]; 2 min p.i.): 0.0 ± 0.0 % ID | Total brain uptake ([1]; 2 min p.i.): 0.58 % ID and 0.58 ± 0.0 % ID | SUV Blood ([1]; 2 min p.i.): 0.80 ± 0.01 | SUV Cerebellum ([1]; 2 min p.i.): 1.46 and 1.46 ± 0.02 | SUV Cerebrum total ([1]; 2 min p.i.): 1.39 ± 0.01 | SUV Cortex ([1]; 2 min p.i.): 1.65 ± 0.02 | SUV Hippocampus ([1]; 2 min p.i.): 1.04 ± 0.01 | SUV Striatum ([1]; 2 min p.i.): 1.46 and 1.46 ± 0.02 | % ID Blood ([1]; 30 min p.i.): 2.8 ± 0.3 % ID | % ID Carcass ([1]; 30 min p.i.): 64.3 ± 5.8 % ID | % ID Cerebellum ([1]; 30 min p.i.): 0.191 ± 0.030 % ID | % ID Cerebrum total ([1]; 30 min p.i.): 0.694 ± 0.117 % ID | % ID Cortex ([1]; 30 min p.i.): 0.165 ± 0.081 % ID | % ID Heart ([1]; 30 min p.i.): 2.5 ± 0.4 % ID | % ID Hippocampus ([1]; 30 min p.i.): 0.026 ± 0.007 % ID | % ID Intestines ([1]; 30 min p.i.): 8.3 ± 2.0 % ID | % ID Kidneys ([1]; 30 min p.i.): 4.0 ± 0.7 % ID | % ID Liver ([1]; 30 min p.i.): 14.2 ± 2.4 % ID | % ID Lungs ([1]; 30 min p.i.): 0.7 ± 0.1 % ID | % ID Rest of cerebrum ([1]; 30 min p.i.): 0.469 ± 0.047 % ID | % ID Spleen + Pancreas ([1]; 30 min p.i.): 1.4 ± 0.2 % ID | % ID Stomach ([1]; 30 min p.i.): 2.1 ± 0.3 % ID | % ID Striatum ([1]; 30 min p.i.): 0.034 ± 0.005 % ID | % ID Urine ([1]; 30 min p.i.): 0.3 ± 0.2 % ID | Total brain uptake ([1]; 30 min p.i.): 0.93 ± 0.2 % ID | SUV Blood ([1]; 30 min p.i.): 0.40 ± 0.01 | SUV Cerebellum ([1]; 30 min p.i.): 2.33 ± 0.04 | SUV Cerebrum total ([1]; 30 min p.i.): 1.66 ± 0.03 | SUV Cortex ([1]; 30 min p.i.): 1.87 ± 0.02 | SUV Hippocampus ([1]; 30 min p.i.): 1.57 ± 0.03 | SUV Striatum ([1]; 30 min p.i.): 2.31 ± 0.04 | % ID Blood ([1]; 60 min p.i.): 3.3 % ID and 3.3 ± 0.2 % ID | % ID Carcass ([1]; 60 min p.i.): 62.8 ± 2.5 % ID | % ID Cerebellum ([1]; 60 min p.i.): 0.144 ± 0.021 % ID | % ID Cerebrum total ([1]; 60 min p.i.): 0.596 ± 0.128 % ID | % ID Cortex ([1]; 60 min p.i.): 0.097 ± 0.039 % ID | % ID Heart ([1]; 60 min p.i.): 1.3 ± 0.3 % ID | % ID Hippocampus ([1]; 60 min p.i.): 0.021 ± 0.005 % ID | % ID Intestines ([1]; 60 min p.i.): 11.1 ± 0.9 % ID | % ID Kidneys ([1]; 60 min p.i.): 2.9 ± 0.4 % ID | % ID Liver ([1]; 60 min p.i.): 15.4 ± 0.9 % ID | % ID Lungs ([1]; 60 min p.i.): 0.5 ± 0.1 % ID | % ID Rest of cerebrum ([1]; 60 min p.i.): 0.450 ± 0.086 % ID | % ID Spleen + Pancreas ([1]; 60 min p.i.): 1.3 ± 0.2 % ID | % ID Stomach ([1]; 60 min p.i.): 1.6 ± 0.3 % ID | % ID Striatum ([1]; 60 min p.i.): 0.029 ± 0.009 % ID | % ID Urine ([1]; 60 min p.i.): 0.6 ± 0.1 % ID | % ID present in liver and intestines ([1]; 60 min p.i.): 26.5 % ID | % ID present in the urinary system ([1]; 60 min p.i.): 3.5 % ID | Total brain uptake ([1]; 60 min p.i.): 0.76 ± 0.1 % ID | SUV Blood ([1]; 60 min p.i.): 0.50 ± 0.00 | SUV Cerebellum ([1]; 60 min p.i.): 1.68 ± 0.04 | SUV Cerebrum total ([1]; 60 min p.i.): 1.40 ± 0.03 | SUV Cortex ([1]; 60 min p.i.): 1.34 ± 0.02 | SUV Hippocampus ([1]; 60 min p.i.): 1.13 ± 0.02 | SUV Striatum ([1]; 60 min p.i.): 1.78 ± 0.04 | % ID present in the carcass ([1]; at all time points examined): ~56 % ID
